The results in this text go back to patent US9382267B2, “Small molecule inhibitors of nicotinamide phosphoribosyltransferase (NAMPT)” (The Curators of the University of Missouri, priority 2011, dated 2016).

Read-outs that look alike come from different tables or passages of the source.

As a reminder, the IC50 is the concentration that inhibits the measured activity by half.

For one assay, the system named is DLD1. Nature of the assay: Scratch test (wound healing) assay. The assay is classed as cell-based, human. As to conditions: for relative potencies of the compounds: wound healing experiments, consistent with cell viability assays; for inhibition of cancer cell migration: 1 nM test agent, 24 h, FIG. 9. How it is done: The antimigratory effects of compounds (5)-(7) were compared with FK866 by employing a wound healing or scratch test analysis using various cell cancer lines. The assay measures the ability of a drug to inhibit cancer cell migration across a gap “scratched” in a confluent layer of cells. The cells were imaged immediately after the formation of the wound and then incubated with 1 nM concentrations of each test agent. After 24 h, the wounds were imaged again and compared with a control group of untreated cells. […] The results of the wound healing experiments are consistent with those from the cell viability assays with regard to the relative potencies of the compounds (6)>(7)>(5)>FK866.

The subject of assay [1] is A549 human lung cancer cell line. Nature of the assay: MTT assay, A549. In kind it is cell-based. As to conditions: A549 (Lung) human tumor cell line. Here is the method: (§1) A549, DLD1, T47D and PC3 were purchased from ATCC (Manassas, Va.). MTT assay kit was purchased from Promega (Madison, Wis.). FK866 and NMN were purchased from Enzo Life Sciences (Farmingdale, N.Y.) and Sigma (St Louis, Mo.) respectively.
(§2) Additional MTT assays are show in FIGS. 11(A)-(D) and FIG. 12 for compounds (33)-(37).
(§3) The assay was performed according to the manufacturers protocol (CycLex NAMPT Colorimetric Assay Kit, MBL International Corp., Woburn, Mass.). The NAMPT assay was performed according manufacturers protocol. Briefly we used the “1-Step Assay Method” for which following reagents were mixed to make assay buffer and kept at ice before starting the assay: 10 μL each of 10× Nampt assay buffer, nicotinamide, PRPP, ATP and EtOH; 2 μL each of recombinant NMNAT1, WST-1, ADH, diaphorase and D2O. The Nampt inhibition assay was performed by mixing 2 μl of various concentrations (to make 1 pM-100 nM) of FK866 or (6) (or 2 μL DMSO as vehicle control) with the following: 2 μL recombinant Nampt and 36 μL D2O. The reaction was initiated by adding 60 μL of 1-Step Assay Buffer to each well and mixed thoroughly followed by incubation at 30° C. for 20 mins. After this period, the absorbance at 450 nm was measured and compared with the positive control. […] TABLE 4 lists measured Half-Maximal Inhibitory Concentrations (IC50) against Human Tumor Cell Lines A549 (Lung), DLD1 (Colon), and T47D (Breast).
In general terms: Tetrazolium assays rely on reduction of a dye to a coloured formazan, in cell work by metabolically active cells.

The subject of another assay is A549 cells. Description: Cell rescue assay with nicotinamide mononucleotide (NMN). The assay is classed as cell-based, human. The note with it: A549 cells treated with 10 nM agent; 1, 10 or 100 μM NMN; 72 h; MTT. Here is the method:
A549 cells were treated with 10 nM (1), (5), (6), or (7). Error bars represent the mean±SD. Cell viability was measured using the MTT assay. Each measurement was repeated 4 times.
Cell rescue assays were conducted using Nicotinamide Mononucleotide (NMN) as described by Busso et al. (Busso, N.; Karababa, M.; Nobile, M.; Rolaz, A.; Van Gool, F.; Galli, M.; Leo, O.; So, A.; De Smedt, T. Pharmacological inhibition of nicotinamide phosphoribosyltransferase/visfatin enzymatic activityidentifies a new inflammatory pathway linked to NAD. PLoS One 2008, […], e2267.) Briefly, A549 and DLD1 cells were plated at a density of 10,000 cells per well in 96 well plates for overnight. Cells were then treated with 10 nM concentrations of agents (1), (5)-(7). Simultaneously, concentrations of 1, 10 or 100 μM NMN were added to the cultures. Cultures were then continued for 72 h. MTT reagent was added to the cells after 72 h for a period of 3 h and then MTT crystals were solubilized using solubilization buffer. Readings were taken at 570 nm wavelength. Control cells were considered as 100% survival to plot the inhibition and rescue graph. The experiments were repeated four times.

Assay [2] concerns DLD1 (Colon) human tumor cell line. Nature of the assay: MTT assay, DLD1. The assay is classed as cell-based. Here is the method:
as §1, §2, §3

The test system of assay [3] is T47D (Breast) human tumor cell line. Nature of the assay: MTT assay, T47D. The assay is classed as cell-based. How it is done: as §1, §2, §3

Turning to “1-(4′-(Trans-3″-(3′″-pyridyl)acrylamido)butyl)-1,12-dicarba-closo-dodecaborane [Compound 7]”, the “relative potencies of the compounds” value in the assay with DLD1 was “(6)>(7)>(5)>FK866”. Moreover, the values for the IC50 in assay [1], in assay [2] and in assay [3] were 0.99 ± 0.03 nM, 2.2 ± 0.12 nM and 0.58 ± 0.03 nM, respectively. Further, in the assay on A549 cells, the “cell rescue by NMN” value is recorded as “nearly complete rescue”.
For “1-(4′-(Trans-3″-(3′″pyridyl)acrylamido)butyl)-1,7-dicarba-closo-dodecaborane [Compound 6]”, the “inhibition of cancer cell migration” value in the assay with DLD1 was “highest potency”. In the assay on DLD1, the “relative potencies of the compounds” value is “(6)>(7)>(5)>FK866”. For the same compound, the IC50 in assay [1] was 0.41 ± 0.01 nM; in assay [2], 0.31 ± 0.01 nM; in assay [3], 0.32 ± 0.02 nM. For the same compound, the “cell rescue by NMN” value with A549 cells is “nearly complete rescue”.
`O=C(/C=C/c1cccnc1)NCCCCC1CCN(C(=O)c2ccccc2)CC1` [Compound 1, reference compound]: the “inhibition of cancer cell migration” value in the assay on DLD1 is on record as “partially inhibited cell migration”. In addition, the “relative potencies of the compounds” value in the assay on DLD1 is given as “(6)>(7)>(5)>FK866”. Further, the values for the IC50 in assay [1], in assay [2] (DLD-1) and in assay [3] were 1.62 ± 0.04 nM, 3.14 ± 0.11 nM and 3.2 ± 0.16 nM, respectively. The “cell rescue by NMN” value with A549 cells is reported as “nearly complete rescue”.
Take `O=C(/C=C/c1cccnc1)NCCC#CC12CC3CC(CC(C3)C1)C2` [Compound 4]: the results for the IC50 in assay [1], in assay [2] (DLD-1) and in assay [3] were 88.9 ± 1.1 nM, 20.3 ± 0.44 nM and 186 ± 4.1 nM, respectively.
